Assay results taken from patent US20050222227A1, “Oxazole-amine compounds for the treatment of neurodegenerative disorders” (Pfizer Inc, priority 2004, published 2005).

System: gamma-secretase
Assay: gamma-secretase activity in a solubilized membrane preparation (cell-free assay)
Format: biochemical
Conditions: according to McLendon et al., read-out: IC50 activity for inhibiting gamma-secretase
Text: The activity of compounds of the Formula I of the present invention in inhibiting gamma-secretase activity may be determined in a solubilized membrane preparation generally according to the description provided in McLendon et al. Cell-free assays for γ-secretase activity, The FASEB Journal (Vol. 14, December 2000, pp. 2383-2386).

IC50: < 10 µM
SMILES: C/C=C(\C)c1cnc(NC(=O)[C@H](CCC)NC2CCc3cc(F)cc(F)c3C2)o1 (stereo partly drawn) [Example 1, (S)-2-(5,7-difluoro-1,2,3,4-tetrahydronaphthalen-3-ylamino)-N-(5-((E)-but-2-en-2-yl)oxazol-2-yl)pentanamide]
